Laboratory results taken from patent publication US11370785B2, “Multicyclic compounds as farnesoid X receptor modulators” (BRISTOL-MYERS SQUIBB COMPANY, priority 2017, dated 2022).

target: T1, human FXR (Homo sapiens, UniProt Q96RI1); experiment: transient human FXR/Gal4-luciferase reporter assay; assay type: cell-based; details: Gal4-hFXR reporter in HEK293 cells; relative to 8 μM GW-4064; read-out: FXR EC50
T1 construct: expressed in transfected cells; host or cells: HEK293 cells stably carrying a 5xGal4-response-element firefly luciferase reporter, transiently transfected with the pcDNA3.1-Gal4-FXR plasmid
T1 sequence (Q96RI1 262-486 limits assumed): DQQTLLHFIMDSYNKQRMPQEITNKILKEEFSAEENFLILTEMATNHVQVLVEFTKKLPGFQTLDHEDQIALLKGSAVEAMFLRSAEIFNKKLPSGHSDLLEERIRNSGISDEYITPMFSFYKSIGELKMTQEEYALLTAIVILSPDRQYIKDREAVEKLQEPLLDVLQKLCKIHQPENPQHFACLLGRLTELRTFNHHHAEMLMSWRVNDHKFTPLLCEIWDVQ
How it was run: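 HEK293 cells stably carrying a 5×Gal4-response-element firefly luciferase reporter, transiently transfected with a CMV-driven Gal4 DNA-binding domain–human FXR ligand-binding domain fusion, were treated overnight at 37 °C with serially diluted compounds. Luminescence was read by Steady-Glo; DMSO background was subtracted and signal expressed as percent of the 8 μM GW-4064 response.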

Question: For O=C(O)c1cc(OC2CCC2)c2cc(N3CCC4(CC3)CC(=Cc3c(-c5ccccc5OC(F)(F)F)noc3C3CC3)C4)ccc2n1 [Example 115], which EC50 is on record?
Answer: 0.064 µM

Question: With O=C(O)c1cc(OC2CCC2)c2cc(N3CCC4(CC3)CC(Cc3c(-c5ccccc5OC(F)(F)F)noc3C3CC3)C4)ccc2n1 [Example 116] as the molecule, how does the EC50 read?
Answer: 0.014 µM

Question: COc1ccc(C(=O)O)c2ccc(N3CCC4(CC3)CC(=Cc3c(-c5ccccc5C(F)(F)F)noc3C3CC3)C4)nc12 [Example 117] was tested. Which EC50 did it give?
Answer: 0.241 µM

Question: Which EC50 does the source give for COc1ccc(C(=O)O)c2ccc(N3CCC4(CC3)CC(Cc3c(-c5ccccc5C(F)(F)F)noc3C3CC3)C4)nc12 [Example 118] here?
Answer: 0.191 µM

Question: How did the EC50 turn out when COc1ccc(C(=O)O)c2ccc(N3CCC4(CC3)CC(=Cc3c(-c5c(Cl)cncc5Cl)noc3C3CC3)C4)nc12 [Example 119] was run?
Answer: 0.336 µM

Question: O=C(O)c1cc(OC2CCCC2)c2cc(N3CCC4(CC3)CC(=Cc3c(-c5ccccc5C(F)(F)F)noc3C3CC3)C4)ccc2n1 [Example 120] was tested. Which EC50 did it give?
Answer: 0.003 µM

Question: For O=C(O)c1cc(OC2CCCC2)c2cc(N3CCC4(CC3)CC(=Cc3c(-c5ccccc5OC(F)(F)F)noc3C3CC3)C4)ccc2n1 [Example 121], which EC50 is on record?
Answer: 0.016 µM

Question: Which EC50 does the source give for O=C(O)c1cc(OC2CCCC2)c2cc(N3CCC4(CC3)CC(Cc3c(-c5ccccc5OC(F)(F)F)noc3C3CC3)C4)ccc2n1 [Example 122] here?
Answer: 0.016 µM

Question: Which EC50 does the source give for O=C(O)c1cc(OC2CCCC2)c2cc(N3CCC4(CC3)CC(Cc3c(-c5ccccc5C(F)(F)F)noc3C3CC3)C4)ccc2n1 [Example 123] here?
Answer: 0.006 µM

Question: For O=C(O)c1cc(OC2CCC2)c2cc(N3CCC4(CC3)CC(=Cc3c(-c5c(Cl)cncc5Cl)noc3C3CC3)C4)ccc2n1 [Example 124], which EC50 is on record?
Answer: 0.014 µM

Question: With O=C(O)c1cc(OC2CCCC2)c2cc(N3CCC4(CC3)CC(=Cc3c(-c5c(Cl)cncc5Cl)noc3C3CC3)C4)ccc2n1 [Example 125] as the molecule, how does the EC50 read?
Answer: 0.015 µM

Question: O=C(O)c1cc(F)c2nc(N3CCC4(CC3)CC(=Cc3c(-c5c(Cl)cccc5Cl)noc3C(F)(F)F)C4)sc2c1 [Example 126] was tested. Which EC50 did it give?
Answer: 0.068 µM

Question: For O=C(O)c1cc(F)c2nc(N3CCC4(CC3)CC(=Cc3c(-c5ccncc5C(F)(F)F)noc3C3CC3)C4)sc2c1 [Example 127], which EC50 is on record?
Answer: 0.198 µM

Question: With O=C(O)c1cc(C(F)(F)F)c2cc(N3CCC4(CC3)CC(=Cc3c(-c5ccncc5C(F)(F)F)noc3C3CC3)C4)ccc2n1 [Example 128] as the molecule, how does the EC50 read?
Answer: 0.019 µM

Question: For CCOC(=O)c1cc(C(F)(F)F)c2cc(N3CCC4(CC3)CC(Cc3c(-c5ccccc5C(F)(F)F)noc3C3CC3)C4)ccc2n1 [Example 129], which EC50 is on record?
Answer: 0.125 µM

Question: With O=C(O)c1cc(F)c2nc(N3CCC4(CC3)CC(=Cc3c(-c5c(Cl)cccc5Cl)noc3C3CC3)C4)sc2c1 [Example 130] as the molecule, how does the EC50 read?
Answer: 0.26 µM

Question: With O=C(O)c1cc(F)c2nc(N3CCC4(CC(=Cc5c(-c6c(Cl)cccc6Cl)noc5C5CC5)C4)C3)sc2c1 (stereo not shown) [Example 131] as the molecule, how does the EC50 read?
Answer: 0.072 µM

Question: O=C(O)c1ccc(N2CCC3(CC(=Cc4c(-c5c(Cl)cccc5Cl)noc4C4CC4)C3)C2)nc1 (stereo not shown) [Example 132] was tested. Which EC50 did it give?
Answer: 0.514 µM

Question: With O=C(O)c1cc(C(F)(F)F)c2cc(N3CCC4(CC3)CC(=Cc3c(-c5c(Cl)cccc5Cl)noc3C(F)(F)F)C4)ccc2n1 [Example 136] as the molecule, how does the EC50 read?
Answer: 0.027 µM

Question: O=C(O)c1cc(OC2COC2)c2cc(N3CCC4(CC3)CC(=Cc3c(-c5ccccc5C(F)(F)F)noc3C3CC3)C4)ccc2n1 [Example 137] was tested. Which EC50 did it give?
Answer: 0.078 µM

Question: How did the EC50 turn out when O=C(O)c1cc(OC2COC2)c2cc(N3CCC4(CC3)CC(Cc3c(-c5ccccc5C(F)(F)F)noc3C3CC3)C4)ccc2n1 [Example 138] was run?
Answer: 0.023 µM

Question: With O=C(O)c1cc(OC2COC2)c2cc(N3CCC4(CC3)CC(=Cc3c(-c5c(Cl)cncc5Cl)noc3C3CC3)C4)ccc2n1 [Example 139] as the molecule, how does the EC50 read?
Answer: 0.047 µM

Question: How did the EC50 turn out when COc1cc(C(=O)O)nc2ccc(N3CCC4(CC3)CC(=Cc3c(-c5c(Cl)cccc5Cl)noc3C(F)(F)F)C4)cc12 [Example 140] was run?
Answer: 0.004 µM

Question: For CCOc1cc(C(=O)O)ncc1N1CCC2(CC1)CC(=Cc1c(-c3ccccc3C(F)(F)F)noc1C1CC1)C2 [Example 141], which EC50 is on record?
Answer: 0.442 µM

Question: With CCOc1cc(C(N)=O)ncc1N1CCC2(CC1)CC(=Cc1c(-c3ccccc3C(F)(F)F)noc1C1CC1)C2 [Example 142] as the molecule, how does the EC50 read?
Answer: 0.189 µM
